The source of these data is patent US20230131899A1, “INHIBITORS OF MICROBIALLY INDUCED AMYLOID” (Axial Therapeutics, Inc., priority 2020, published 2023).

This assay deals with CsgA gene expression (csgBAC promoter-GFP reporter) in E. coli UTI89. In words: In vitro live cell fluorescent reporter assay of CsgA transcription (Reporter Assay). The class given is cell-based. Particulars: Escherichia coli; for IC50: read-out: Reporter Assay Abs IC50 (μM), median Abs IC50 in the CsgA reporter assay, N/A = maximum expression reduction is <50% of control. The method, then:
In vitro live cell fluorescent reporter assay to determine effects of compounds on CsgA transcription. To assess the impact of compounds on CsgA gene expression, a live cell assay was performed using an engineered strain of E. coli UTI89 with a fluorescent CsgA gene expression reporter driven by the csgBAC promoter. In the reporter strain, a gene encoding Green Fluorescent Protein (GFP) was placed immediately downstream of the full intergenic region between csgDEF and csgBAC, containing the csgBAC promoter and other transcriptional regulatory elements, and inserted in single copy into the E. coli UTI89 chromosome, as described in Cegelski et. al., “Small-molecule inhibitors target Escherichia coli amyloid biogenesis and biofilm formation,” Nat. Chem. Bio., 25 Oct. 2009. With this construct, GFP expression in the reporter strain was under the same regulation as CsgA expression. The reporter strain was struck out on a YESCA agar plate (1 g/L yeast extract, 10 g/L casamino acids, 20 g/L Bacto Agar) and grown at about 27° C. for 2 days, or until single colonies were sufficiently large to pick. A single colony of the reporter strain was used to inoculate 5 mL of YESCA broth (1 g/L yeast extract, 10 g/L casamino acids), which was grown overnight at about 27° C. The inoculum was diluted 1:10 in YESCA broth and the optical density at 600 nm (OD600) was measured on a SpectraMax M2 or M5e (Molecular Devices, San Jose, Calif.) spectrophotometer in cuvettes. The culture was then further diluted to achieve a final OD600 of 0.003, which was confirmed by measurement of the OD600. Compounds were diluted in dimethyl sulfoxide (DMSO) and plated on black clear-bottomed tissue culture-treated 96-well plates with 1.5 μL/well for final test concentrations from 0.14-100 μM. All assay wells, including vehicle controls and positive controls for inhibition, included 1% DMSO final. Vehicle control wells consisted of DMSO and the reporter strain to assess the expression of the reporter strain in the assay in the absence of any compound. […] 148.5 μL culture at OD600 0.003 in YESCA broth was added to all wells for 150 μL final volume. Plates were incubated at 27° C. for 20 hours, then GFP fluorescence signal for each well was read on a Spectramax M2 or M5e plate reader with excitation at 485 nm, emission at 525 nm, and a cutoff at 515 nm. OD600 for each well was also measured on the Spectramax M2 or M5e plate reader. […] Background fluorescence was subtracted from all wells, then fluorescence signal for each well was normalized to the mean of the vehicle control wells. Normalized dose response curves were plotted for each compound, and compound inhibition of CsgA transcription was determined by assessing the curve-fit IC50, bottom, top, span (top-bottom), and Hill slope using GraphPad Prism software version 8.1.1 (GraphPad Software, San Diego, Calif.). An additional metric used to evaluate compounds was the concentration at which the curve reached 50% of the expression level of the vehicle control. This was written as a custom analysis in GraphPad Prism according to the formula X[50], or the X value at which Y=50, ie, the compound concentration at which fluorescence of the reporter strain was calculated to reach 50% of the vehicle control fluorescence. Separately from the fluorescence data, OD600 values were normalized to the mean of the vehicle control wells, and dose response curves were plotted for each compound. OD600 reduction of greater than 10% indicated compounds had some toxicity or negative impact on bacterial growth. […]
Background: A reporter such as luciferase makes a cellular process visible.

[1] abbreviates: read-out: Reporter Assay Abs IC50 (activity range), median Abs IC50 in the CsgA reporter assay, class symbol.
Setting [2] is: read-out: Reporter Assay Abs IC50, activity range, class symbol.

pIC50: −log10 of the molar value. Where two headings read alike, the source gives them in different places.

For orientation: pIC50 means the negative decadic logarithm of the IC50, by convention in mol/L. In general, IC50 refers to the concentration that inhibits the measured activity by half. As to `CCCCN1CC(C(=O)O)n2c(c(-c3cccc(C(F)(F)F)c3)c(Cc3cccc4ccccc34)cc2=O)S1(=O)=O` (racemic) [Compound 021, 2-butyl-8-(naphthalen-1-ylmethyl)-6-oxo-9-(3-(trifluoromethyl)phenyl)-3,4-dihydro-2H,6H-pyrido[1,2-e][1,2,5]thiadiazine-4-carboxylic acid 1,1-dioxide], the half-maximal inhibitory concentration (IC50) was determined as 2.6 µM. Also, the pIC50 under setting [1] is 5.35 to 5.89.

On to `O=C(O)C1CN(Cc2ccccc2)c2c(-c3cccc(C(F)(F)F)c3)c(CN3CCC[C@@H](c4ccccc4)C3)c(Cl)c(=O)n21` (stereo partly drawn) [Compound 230, 1-benzyl-6-chloro-5-oxo-7-(((S)-3-phenylpiperidin-1-yl)methyl)-8-(3-(trifluoromethyl)phenyl)-1,2,3,5-tetrahydroimidazo[1,2-a]pyridine-3-carboxylic acid], for which the IC50 turned out to be 1.2 µM. In addition, the pIC50 under setting [2] was above 5.89. For `O=C(O)C1CN(Cc2ccccc2)c2c(-c3cccc(C(F)(F)F)c3)c(Cc3cccc4ncccc34)cc(=O)n21` (centres unmarked) [Compound 222, 1-benzyl-5-oxo-7-(quinolin-5-ylmethyl)-8-(3-(trifluoromethyl)phenyl)-1,2,3,5-tetrahydroimidazo[1,2-a]pyridine-3-carboxylic acid], the half-maximal inhibitory concentration (IC50) was 31.8 µM. Further, the pIC50 under setting [2] was below 5.00. With `COc1ccc(Cc2c(-c3cccc(C(F)(F)F)c3)c3n(c(=O)c2Cl)C(C(=O)O)CN3Cc2ccccc2)c2ccccc12` (centres unmarked) [Compound 219, 1-benzyl-6-chloro-7-((4-methoxynaphthalen-1-yl)methyl)-5-oxo-8-(3-(trifluoromethyl)phenyl)-1,2,3,5-tetrahydroimidazo[1,2-a]pyridine-3-carboxylic acid], the IC50 worked out at 0.8 µM. For the same molecule, under setting [2], the pIC50 is above 5.89. `O=C(O)C1CN(Cc2ccccc2)c2c(-c3cccc(C(F)(F)F)c3)c(CN3CCC[C@@H](c4ccccc4)C3)cc(=O)n21` (stereo partly drawn) [Compound 231, 1-benzyl-5-oxo-7-(((S)-3-phenylpiperidin-1-yl)methyl)-8-(3-(trifluoromethyl)phenyl)-1,2,3,5-tetrahydroimidazo[1,2-a]pyridine-3-carboxylic acid]: the concentration for half-maximal inhibition (IC50) was determined as 3.4 µM. The pIC50 under setting [2] was 5.35 to 5.89.

For the molecule `O=C(O)C1CN(Cc2ccccc2)c2c(-c3cccc(C(F)(F)F)c3)c(Cc3ccc(Cl)c4ccccc34)c(Cl)c(=O)n21` (centres unmarked) [Compound 225, 1-benzyl-6-chloro-7-((4-chloronaphthalen-1-yl)methyl)-5-oxo-8-(3-(trifluoromethyl)phenyl)-1,2,3,5-tetrahydroimidazo[1,2-a]pyridine-3-carboxylic acid], the IC50 stood at 1.6 µM. Under setting [2], the pIC50 is 5.35 to 5.89.

With `CC(C)(C)c1ccc(Cc2cc(=O)n3c(c2-c2cccc(C(F)(F)F)c2)N(Cc2ccccc2)CC3C(=O)O)cc1` (centres unmarked) [Compound 227, 1-benzyl-7-(4-(tert-butyl)benzyl)-5-oxo-8-(3-(trifluoromethyl)phenyl)-1,2,3,5-tetrahydroimidazo[1,2-a] pyridine-3-carboxylic acid], the IC50 came to 1.8 µM. The negative logarithm of the IC50 (pIC50) under setting [2] was 5.35 to 5.89. As to `CC(C)(C)c1cccc(Cc2cc(=O)n3c(c2-c2cccc(C(F)(F)F)c2)N(Cc2ccccc2)CC3C(=O)O)c1` (centres unmarked) [Compound 226, 1-benzyl-7-(3-(tert-butyl)benzyl)-5-oxo-8-(3-(trifluoromethyl)phenyl)-1,2,3,5-tetrahydroimidazo[1,2-a] pyridine-3-carboxylic acid], the IC50 amounted to 2.7 µM. `O=C(O)C1CN(Cc2ccccc2)c2c(-c3cccc(C(F)(F)F)c3)c(Cc3cncc4ccccc34)cc(=O)n21` (centres unmarked) [Compound 221, 1-benzyl-7-(isoquinolin-4-ylmethyl)-5-oxo-8-(3-(trifluoromethyl)phenyl)-1,2,3,5-tetrahydroimidazo[1,2-a]pyridine-3-carboxylic acid]: the IC50 was determined as 6.7 µM. Also, the pIC50 under setting [2] is 5.00 to 5.34. Consider `O=C(O)C1CN(Cc2ccccc2)c2c(-c3cccc(C(F)(F)F)c3)c(Cc3ccccc3)cc(=O)n21` (centres unmarked) [Compound 235, 1,7-dibenzyl-5-oxo-8-(3-(trifluoromethyl)phenyl)-1,2,3,5-tetrahydroimidazo[1,2-a]pyridine-3-carboxylic acid], for which the IC50 was 2.7 µM. Moreover, under setting [2], the pIC50 was 5.35 to 5.89. In the case of `COc1ccc(Cc2cc(=O)n3c(c2-c2cccc(C(F)(F)F)c2)N(Cc2ccccc2)CC3C(=O)O)c2ccccc12` (centres unmarked) [Compound 220, 1-benzyl-7-((4-methoxynaphthalen-1-yl)methyl)-5-oxo-8-(3-(trifluoromethyl)phenyl)-1,2,3,5-tetrahydroimidazo[1,2-a]pyridine-3-carboxylic acid], the IC50 came to 1.2 µM. Further, the pIC50 under setting [2] is above 5.89. On to `O=C(O)C1CN(Cc2ccccc2)c2c(-c3cccc(C(F)(F)F)c3)c(CN3CCC[C@H](c4ccccc4)C3)c(Cl)c(=O)n21` (stereo partly drawn) [Compound 237, 1-benzyl-6-chloro-5-oxo-7-(((R)-3-phenylpiperidin-1-yl)methyl)-8-(3-(trifluoromethyl)phenyl)-1,2,3,5-tetrahydroimidazo[1,2-a]pyridine-3-carboxylic acid], for which the IC50 was determined as 1.3 µM. Also, under setting [2], the pIC50 was 5.35 to 5.89. The matching figures for `O=C(O)C1CN(Cc2ccccc2)c2c(-c3cccc(C(F)(F)F)c3)c(CCc3ccccc3)cc(=O)n21` (centres unmarked) [Compound 236, 1-benzyl-5-oxo-7-phenethyl-8-(3-(trifluoromethyl)phenyl)-1,2,3,5-tetrahydroimidazo[1,2-a]pyridine-3-carboxylic acid]: 1.7 µM and 5.35 to 5.89.

Consider `O=C(O)C1CN(Cc2ccccc2)c2c(-c3cccc(C(F)(F)F)c3)c(CCc3ccccc3)c(Cl)c(=O)n21` (centres unmarked) [Compound 240, 1-benzyl-6-chloro-5-oxo-7-phenethyl-8-(3-(trifluoromethyl)phenyl)-1,2,3,5-tetrahydroimidazo[1,2-a]pyridine-3-carboxylic acid], for which the IC50 was determined as 1.4 µM. In addition, the pIC50 under setting [2] is 5.35 to 5.89. As to `O=C(O)C1CN(Cc2ccccc2)c2c(-c3cccc(C(F)(F)F)c3)c(Cc3cccc4cccnc34)cc(=O)n21` (centres unmarked) [Compound 224, 1-benzyl-5-oxo-7-(quinolin-8-ylmethyl)-8-(3-(trifluoromethyl)phenyl)-1,2,3,5-tetrahydroimidazo[1,2-a]pyridine-3-carboxylic acid], the IC50 turned out to be 9.7 µM. Further, under setting [2], the pIC50 was 5.00 to 5.34. For the molecule `CN1CC(C(=O)O)n2c(c(-c3cccc(C(F)(F)F)c3)c(Cc3cccc4ccccc34)cc2=O)S1(=O)=O` (racemic) [Compound 008, 2-methyl-8-(naphthalen-1-ylmethyl)-6-oxo-9-(3-(trifluoromethyl)phenyl)-3,4-dihydro-2H,6H-pyrido[1,2-e][1,2,5]thiadiazine-4-carboxylic acid 1,1-dioxide], the IC50 amounted to 4.3 µM. Besides, the negative-log IC50 (pIC50) under setting [1] is 5.35 to 5.89. Take `O=C(O)C1CN(Cc2ccccc2)c2c(-c3cccc(C(F)(F)F)c3)c(Cc3cccc4cnccc34)cc(=O)n21` (centres unmarked) [Compound 223, 1-benzyl-7-(isoquinolin-5-ylmethyl)-5-oxo-8-(3-(trifluoromethyl)phenyl)-1,2,3,5-tetrahydroimidazo[1,2-a] pyridine-3-carboxylate]: the IC50 turned out to be 21.7 µM. Moreover, under setting [2], the pIC50 is below 5.00. On to `O=C(O)c1c[nH]c2c(-c3cccc(C(F)(F)F)c3)c(Cc3cccc4ccccc34)cc(=O)n12` [Compound 110, 7-(naphthalen-1-ylmethyl)-5-oxo-8-(3-(trifluoromethyl)phenyl)-1,5-dihydroimidazo[1,2-a]pyridine-3-carboxylic acid], for which the IC50 stood at 13.7 µM. Besides, the pIC50 under setting [1] is below 5.00.
